The values below come from PubChem BioAssay (NCI).

Where “and” joins values, the source holds several entries; their conditions need not be identical. Equal values may be shown once.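 Exposure lasted 48 hours, with cells grown in 96-well plates and compounds tested at five concentrations. At the GI50, growth is halved. TGI denotes the concentration required for complete inhibition of growth.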

Test systems include KM12 colon; LOX IMVI melanoma; MCF7 breast; RXF 393 renal; SF-268 CNS; SW-620 colon; UACC-62 melanoma; DLD-1 colon; DMS 114 small cell lung; DMS 273 small cell lung; NCI-H226 lung.
Assay in all cases: growth of human tumour cells (NCI), 48 h

As for `Fc1ccc(C2CC(c3cccc(Nc4ccncc4)c3)=NN2c2cc(Cl)cc(Cl)c2)cc1` (stereo unspecified), the GI50 was 1.76 µM in the experiment with KM12 colon; 1.6 µM with LOX IMVI melanoma; 1.95 µM with MCF7 breast; 1.59 µM in the experiment on RXF 393 renal; 1.72 µM in the experiment with SF-268 CNS; 1.75 µM in the experiment with SW-620 colon. Besides, in the experiment on UACC-62 melanoma, the GI50 is 1.74 µM. The TGI in the experiment on KM12 colon was 3.26 µM; in the experiment with LOX IMVI melanoma it was 2.94 µM; in the experiment with MCF7 breast, 4.37 µM; with RXF 393 renal it was 2.99 µM; in the experiment on SF-268 CNS it was 3.4 µM; in the experiment on SW-620 colon, 3.29 µM. Further, the TGI in the experiment with UACC-62 melanoma was 3.27 µM.

As to `COC(=O)c1nc(-c2ccc3c(n2)C(=O)C(N)=C(OC)C3=O)c(N)c(-c2ccc(OC)c(OC)c2O)c1C`, the TGI was 3.42 µM with DLD-1 colon; 2.31 µM with DMS 114 small cell lung; 1.46 µM in the experiment with DMS 273 small cell lung; 6.13 µM with KM12 colon; 1.66 µM with MCF7 breast; 1.41 µM in the experiment on NCI-H226 lung. The TGI in the experiment on RXF 393 renal was found to be 3.55 µM; in the experiment on SF-268 CNS, 5.25 µM; in the experiment on SW-620 colon, 6.88 µM; with UACC-62 melanoma, 1.27 µM.

Consider `COc1ccc(C[C@H](N)C(=O)N2C[C@H](CO)C[C@H](n3ccc(=O)[nH]c3=O)C2)cc1`, for which the TGI in the experiment on DLD-1 colon, in the experiment on DMS 114 small cell lung, in the experiment on DMS 273 small cell lung, with KM12 colon, in the experiment with LOX IMVI melanoma and in the experiment with NCI-H226 lung was > 100 µM each time. The TGI in the experiment with RXF 393 renal, with SF-268 CNS, in the experiment with SW-620 colon and with UACC-62 melanoma was > 100 µM in each case.

For the molecule `CC(=O)OCc1cc(=O)n(C)c2c3c4c(cc12)c(C)cc(=O)n4CO3`, the TGI in the experiment on DLD-1 colon is 26.3 µM; in the experiment with DMS 114 small cell lung it was 6.11 µM; in the experiment on DMS 273 small cell lung, 3.86 µM; with KM12 colon, 41.7 µM; in the experiment on LOX IMVI melanoma, 8.6 µM; with MCF7 breast, 17 µM. Further, the TGI in the experiment on NCI-H226 lung was 5.5 µM; with RXF 393 renal, 3.33 µM; with SF-268 CNS it was 7.21 µM; with SW-620 colon it was 15.6 µM; in the experiment on UACC-62 melanoma, 3.58 µM.

For the molecule `[N-]=[N+]=NC1CC(n2cc(COCC(F)(F)F)c(=O)[nH]c2=O)OC1CO` (stereo unspecified), the TGI in the experiment on DLD-1 colon, in the experiment with DMS 114 small cell lung, in the experiment on DMS 273 small cell lung, in the experiment on KM12 colon, in the experiment on LOX IMVI melanoma and in the experiment on RXF 393 renal was > 100 µM throughout. Besides, the TGI in the experiment on SF-268 CNS, with SW-620 colon and in the experiment with UACC-62 melanoma was > 100 µM in each case.

With `CN(C)CCOC(=O)c1ccc(N)cc1`, the TGI in the experiment with KM12 colon was > 100 µM; with LOX IMVI melanoma, > 100 µM; in the experiment on MCF7 breast it was > 100 µM; in the experiment with NCI-H226 lung, 67.4 µM; in the experiment with RXF 393 renal, > 100 µM; in the experiment with SF-268 CNS it was > 100 µM. Besides, the TGI with SW-620 colon and in the experiment on UACC-62 melanoma was > 100 µM throughout.

Regarding `O=C1c2ccccc2C(=O)c2c1ccc1c2N=C(c2ccc(F)cc2)CC(c2ccc(Cl)c(Cl)c2)N1` (stereo unspecified), the TGI was determined as 31.8 µM with DLD-1 colon; 21.7 µM in the experiment with DMS 114 small cell lung; 19.4 µM in the experiment with KM12 colon; 18.3 µM in the experiment on LOX IMVI melanoma; 65.6 µM in the experiment with NCI-H226 lung; 32.1 µM in the experiment with SF-268 CNS. In addition, the values for the TGI in the experiment with SW-620 colon and in the experiment on UACC-62 melanoma were 19 µM and 25.7 µM, respectively.

`C[C@@H]1C[C@]2(C[C@@H](C)[C@H]3C(C[C@@]4(C)CCC[C@@H]5C6=C[C@H](CCC34C)OC6=CC(=O)OC5(C)C)O2)OC1=O` (stereo partly specified): the TGI in the experiment on DLD-1 colon, with DMS 114 small cell lung, with DMS 273 small cell lung, in the experiment on KM12 colon, in the experiment with LOX IMVI melanoma and in the experiment on MCF7 breast was > 51.5 µM throughout. Besides, the TGI in the experiment on SW-620 colon and with UACC-62 melanoma was > 51.5 µM in each case.

With `CCOC(=O)c1c2c(n3ccc(NC(=O)OC(C)(C)C)cc13)C(=O)c1ncccc1C2=O`, the GI50 with MCF7 breast is 0.0174 µM; in the experiment on NCI-H226 lung, 0.174 µM; with SF-268 CNS it was 0.0713 µM; in the experiment on UACC-62 melanoma, 0.138 µM. Moreover, the TGI in the experiment with MCF7 breast came out at 0.202 µM; in the experiment with NCI-H226 lung, 0.757 µM; in the experiment on SF-268 CNS, 1.91 µM; with UACC-62 melanoma it was 0.639 µM.

With `CN(C)CCCNc1c2ccccc2nc2cccc([N+](=O)[O-])c12`, the TGI was 0.0385 µM with DMS 114 small cell lung; 0.0184 µM in the experiment with DMS 273 small cell lung; 0.00188 µM in the experiment with MCF7 breast; 0.0589 µM and 0.0601 µM with NCI-H226 lung; 0.00943 µM and 0.0426 µM in the experiment with SF-268 CNS. The figures for the GI50 in the experiment with LOX IMVI melanoma and with NCI-H226 lung were 0.019 µM and 0.0196 µM, respectively.

As to `CSc1nc(NC2OCC(O)C(O)C2O)c(N)c(=O)n1C` (stereo unspecified), the TGI in the experiment with DLD-1 colon, in the experiment with DMS 273 small cell lung, in the experiment on KM12 colon, with LOX IMVI melanoma, in the experiment with MCF7 breast and in the experiment on NCI-H226 lung was > 100 µM throughout. Besides, the TGI with RXF 393 renal, in the experiment with SF-268 CNS, in the experiment on SW-620 colon and with UACC-62 melanoma was > 100 µM each time.

As for `Cc1cc(N=Cc2c(CO)cnc(C)c2O)c(N=Cc2c(CO)cnc(C)c2O)cc1C.[Zn]`, the TGI with KM12 colon, in the experiment with LOX IMVI melanoma, in the experiment with MCF7 breast, in the experiment on NCI-H226 lung, with RXF 393 renal and in the experiment on SF-268 CNS was > 100 µM each time. Also, the TGI in the experiment with SW-620 colon and with UACC-62 melanoma was > 100 µM throughout.
